Reference: article PMC12933330, “Data-Driven Design of PROTAC Linkers to Improve PROTAC Cell Membrane Permeability” (JACS Au, 2026)

Assays:
Caco-2 cell membranes = system: Caco-2 cell membranes; design: method as in PROTAC-DB 3.0; conditions: Caco-2 A-to-B; as recorded in PROTAC-DB 3.0; ref PROTAC-DB 3.0; cited from earlier work
Caco-2 cells = experiment: Caco-2 cell membrane permeability study (transcellular transport, A-to-B); format: in vitro ADME; conditions: Caco-2, A-to-B
Protocol: (§1) KT-474 (Catalog No. E1655), NX-2127 (Catalog No. E1381), MS4078 (Catalog No. S0072), dBET6 (Catalog No. S8762), and dBET57 (Catalog No. S0137) were purchased from Selleck Chemicals (Houston, TX, USA). […] The Caco-2 cell permeability assay using these PROTACs was outsourced to Axcelead Drug Discovery Partners, Inc. (Kanagawa, Japan). Caco-2 cells (American Type Culture Collection, Manassas, VA, USA) were cultured, and a transcellular transport study was performed. The cells were cultured in Transwell 96-well permeable support (pore size 0.4 μm, 0.11 cm^2 surface area) with a polycarbonate membrane (PSHT004S5, Millipore Corporation, Bedford, MA, USA). The cells were preincubated with bovine serum albumin (BSA)-free Hank’s balanced salt solution (HBSS) in the apical compartment (75 μL) and HBSS containing 4% BSA in the basal compartment (250 μL) for 10 min at 37 °C. Subsequently, transcellular transport was initiated by the addition of BSA-free HBSS to apical compartments containing 10 μM compounds. The assay was terminated by separating each assay plate after 2 h. Aliquots (50 μL) from the basolateral compartment were mixed with acetonitrile/methanol. After centrifugation, the compound concentrations in the supernatant were measured using liquid chromatography-tandem mass spectrometry (LC–MS/MS) and a Kinetex C18 column (2.6 μm, 2.1 × 30 mm). The apparent permeabilities (P app, AtoB) of the receivers were determined. Lucifer yellow was added onto the apical compartment at a concentration of 100 μM. The P app of lucifer yellow in the wells where each test compound was evaluated was reported. The P app value of each compound in the membrane permeability test was calculated from a one-point standard curve (0.1 μM) using the following equation. Papp=C×V/T×A×C0 where C (μM) is the concentration of the test compound on the basal side after incubation (measured value); V (mL) is the volume of the basolateral compartment (0.25 mL); T (s) is the permeation experiment time (7200 s); A (cm^2) is the membrane area (0.11 cm^2); and C0 (μM) is the concentration of test compound (measured value).

[1] = as above; format: in vitro ADME; conditions: human; Caco-2, apical to basal, 10 μM compound, 2 h, 37 °C, 4% BSA in basal compartment; read-out: Ex. value, cell membrane permeability (Papp, AtoB)
Protocol: as §1

| SMILES | experimental value of the cell membrane permeability (Caco-2 cell membranes) | cell membrane permeability, result in words (Caco-2 cells) | Papp A→B at 2 h, 10 μM [1] |
| --- | --- | --- | --- |
| Cc1sc2c(c1C)C(c1ccc(Cl)cc1)=NC(CC(=O)NCc1cn(CCCCNC(=O)COc3ccc(C4CCC(=O)NC4=O)cc3)nn1)c1nnc(C)n1-2 (stereo not drawn) [Compound 2895] | 2.14 μcm/s |  |  |
| Cn1c(=O)n(C2CCC(=O)NC2=O)c2cccc(C#CCOC3CCN(C[C@H]4CC[C@H](n5cc(NC(=O)c6cnn7ccc(N8C[C@H]9C[C@@H]8CO9)nc67)c(C(F)F)n5)CC4)CC3)c21 (stereo partly drawn) [KT-474] |  | relatively high cell membrane permeability | 1.26 ×10⁻⁶ cm/s |
| Cc1cc(Nc2ncc(Cl)c(Nc3ccccc3S(=O)(=O)C(C)C)n2)c(OC(C)C)cc1C1CCN(CC(=O)NCCNc2cccc3c2C(=O)N(C2CCC(=O)NC2=O)C3=O)CC1 (stereo not drawn) [MS4078] |  |  | 0.06 ×10⁻⁶ cm/s |
| NC(=O)c1ncc(N2CCCCC2)nc1Nc1ccc(C2CCN(C[C@H]3CCN(c4ccc5c(c4)C(=O)N(C4CCC(=O)NC4=O)C5=O)C3)CC2)cc1 (stereo partly drawn) [NX-2127] |  |  | 0.11 ×10⁻⁶ cm/s |
| Cc1sc2c(c1C)C(c1ccc(Cl)cc1)=NC(CC(=O)NCCCCCCCCNC(=O)COc1cccc3c1C(=O)N(C1CCC(=O)NC1=O)C3=O)c1nnc(C)n1-2 (stereo not drawn) [dBET6] |  | relatively high cell membrane permeability | 0.99 ×10⁻⁶ cm/s |
| Cc1sc2c(c1C)C(c1ccc(Cl)cc1)=NC(CC(=O)NCCNc1cccc3c1C(=O)N(C1CCC(=O)NC1=O)C3=O)c1nnc(C)n1-2 (stereo not drawn) [dBET57] |  | relatively high cell membrane permeability | 0.52 ×10⁻⁶ cm/s |
